Reference: ChEMBL document CHEMBL1240342, “Molecular modeling studies of vascular endothelial growth factor receptor tyrosine kinase inhibitors using QSAR and docking” (J Mol Graph Model, 2009)

Target: Vascular endothelial growth factor receptor 2 (Homo sapiens, UniProt P35968)
Assay: Inhibition of human VEGFR2 after 60 mins

Vascular endothelial growth factor receptor 2, sequence (P35968 whole entry): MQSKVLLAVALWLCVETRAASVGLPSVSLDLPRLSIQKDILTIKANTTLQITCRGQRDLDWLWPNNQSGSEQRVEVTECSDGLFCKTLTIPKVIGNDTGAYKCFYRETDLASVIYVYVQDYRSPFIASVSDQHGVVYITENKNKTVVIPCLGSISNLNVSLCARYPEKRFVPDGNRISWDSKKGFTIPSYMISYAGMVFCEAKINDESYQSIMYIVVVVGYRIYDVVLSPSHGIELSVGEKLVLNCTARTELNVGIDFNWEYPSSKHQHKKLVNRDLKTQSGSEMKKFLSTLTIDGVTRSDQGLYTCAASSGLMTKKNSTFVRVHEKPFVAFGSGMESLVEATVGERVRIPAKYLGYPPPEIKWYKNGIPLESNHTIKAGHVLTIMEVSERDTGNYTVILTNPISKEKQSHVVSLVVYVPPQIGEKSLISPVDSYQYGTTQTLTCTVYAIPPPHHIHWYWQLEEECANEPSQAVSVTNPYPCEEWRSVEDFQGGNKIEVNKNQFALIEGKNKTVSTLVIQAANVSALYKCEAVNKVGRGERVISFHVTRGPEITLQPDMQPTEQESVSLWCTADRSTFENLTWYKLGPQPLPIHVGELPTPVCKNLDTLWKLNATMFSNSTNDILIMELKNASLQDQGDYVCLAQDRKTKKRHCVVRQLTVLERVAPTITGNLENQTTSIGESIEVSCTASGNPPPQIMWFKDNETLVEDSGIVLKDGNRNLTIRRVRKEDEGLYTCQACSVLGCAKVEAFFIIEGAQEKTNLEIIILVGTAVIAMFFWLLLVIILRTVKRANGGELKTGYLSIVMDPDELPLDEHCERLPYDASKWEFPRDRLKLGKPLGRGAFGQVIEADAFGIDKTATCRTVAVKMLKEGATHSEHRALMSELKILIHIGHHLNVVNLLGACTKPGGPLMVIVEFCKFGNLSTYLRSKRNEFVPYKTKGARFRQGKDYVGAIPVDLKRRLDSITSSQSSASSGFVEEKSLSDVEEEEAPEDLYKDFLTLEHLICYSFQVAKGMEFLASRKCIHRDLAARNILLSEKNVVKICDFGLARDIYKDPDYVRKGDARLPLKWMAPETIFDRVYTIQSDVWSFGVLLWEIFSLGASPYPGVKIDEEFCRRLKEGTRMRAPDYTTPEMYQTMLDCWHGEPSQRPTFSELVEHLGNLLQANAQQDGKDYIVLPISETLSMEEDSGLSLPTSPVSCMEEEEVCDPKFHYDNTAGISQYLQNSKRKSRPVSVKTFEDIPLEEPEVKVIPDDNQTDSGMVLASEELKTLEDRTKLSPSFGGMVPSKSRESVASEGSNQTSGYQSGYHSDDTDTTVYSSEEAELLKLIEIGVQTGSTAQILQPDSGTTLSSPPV

## COc1cc2nccc(Oc3ccc4c(C(=O)NCC(F)F)cccc4c3)c2cc1OC
  IC50: 3.8 nM

## COCCNC(=O)c1cccc2cc(Oc3ccnc4cc(OC)c(C(C)=O)cc34)ccc12
  IC50: 21.9 nM

## COc1cc2nccc(Oc3ccc4c(C(N)=O)cccc4c3)c2cc1C(C)=O
  IC50: 1.2 nM

## COc1cc2nccc(Oc3ccc4c(C(=O)Nc5ccc(Cl)cc5)cccc4c3)c2cc1C(C)=O
  IC50: 0.2 nM

## COc1cc2nccc(Oc3ccc4c(C(=O)NC5CCCC5)cccc4c3)c2cc1OC
  IC50: 12 nM

## COc1cc2nccc(Oc3ccc4c(c3)OCCN4C(=O)Nc3ccc(C)cc3)c2cc1C(C)=O
  IC50: 0.501 nM

## COc1cc2nccc(Oc3ccc4c(c3)OCCN4C(=O)Nc3ccc(Cl)cc3)c2cc1C(C)=O
  IC50: 0.603 nM

## COc1cc2nccc(Oc3ccc4c(C(=O)NC5CCC5)cccc4c3)c2cc1OC
  IC50: 2.14 nM

## COc1cc2nccc(Oc3ccc4c(C(=O)NC(C)C)cccc4c3)c2cc1OC
  IC50: 5.5 nM

## COc1cc2nccc(Oc3ccc4c(C(=O)NC5CC5)cccc4c3)c2cc1C(C)=O
  IC50: 0.372 nM
